# Columns and labels:
# [1] = test system: H. pylori sessile cells (NCTC 11637); assay: Bactericidal effect against H. pylori sessile cells (attached to HEp-2); format: cell-based, Helicobacter pylori
# Source text: The investigation aimed at evaluating the difference in susceptibility to ST 722 of planktonic and sessile Helicobacter cells, using in the latter case an "in vitro" experimental model, which closely resembled the clinical condition occurring "in vivo" in type-B gastritis. We used HEp-2 cells, an epithelial cell line which harbors the same membrane glycolipid receptors for H. pylori as those harbored by the mucous cells of the antral gastric mucosa (MEGRAUD, F., TRIMOULET, P., LAMOULIATTE, H. and BOYANOVA, L., 1991. Bacterial effect of Amoxicillin on "H. pylori" in an in vitro model using epithelial cells. Antimicrob. Agents Chemoter. 35 (5): 869-872 and LINGWOOD, C. A., LAW, H. and PELLIZANI, A., 1989. Gastric glycerolipid as a receptor for Campylobacter pylori. Lancet i: 238-241). Additionally, the viability of HEp-2 cells (either infected or not) was evaluated following "in vitro" ST 722 treatment. The degree of cytotoxicity was assessed by cytofiuorimetric analysis of Propidium Iodine-stained HEp-2 cells.
# An HEp-2 epithelial cell line (a human larynx carcinoma) was used to permit the attachment of Helicobacter cells (sessile cells).
# Helicobacter pylori NCTC 11637.
# The antibacterial and cytotoxic activity of ST 722 against Helicobacter and HEp-2 cells, respectively, was evaluated by using 3 different ST 722 concentrations, namely 0.1, 1.56 (i.e. the MIC value vs. H. pylori NCTC 11637) and 4 mcg/ml.
# A confluent HEp-2 cell culture is prepared, which is obtained after incubating the cell line in tissue culture flasks for 24 hours (37° C., 10% CO2, and ~96% humidity) in Columbia agar medium supplemented with Vitox and 7% defribinated horse serum. The bacteria are first harvested with DMEM medium 10% FCS, and then inoculated onto the HEp-2 cells to obtain a concentration of 5.0×10^6 CFU per flask (i.e. 2.0×10^5 CFU/cm^2).
# Bacterial adhesion to the epitelial cells is favored by incubation for 2 hours at 37° C. and 5% CO2. After washing to remove the non attached bacteria. ST 722 is added (5 ml of 3 different concentrations) to the HEp-2 cell culture flasks.
# Two additional flasks are added with 5 ml medium lacking ST 722, as Helicobacter growth controls.
# At a predetermined time, the flasks were taken, the medium was discarded, and the cells were washed. The cells were harvested with a rubber policeman in 1 ml of phosphate-buffered saline and disrupted with an Ultraturax homogenizer.
# After making geometric dilutions of the suspensions (0.1 ml of each dilution inoculated onto each plate in triplicate), the plates were incubated for 7 days in a microaerobic atmosphere, and the plates with 30 to 200 CFU were counted.
# The ST 722 activity against Helicobacter planktonic cells was determined in the same experimental conditions in the absence of HEp-2 cells. Finally, the results are expressed as CFU per flask of each sample with respect to the relevant control (i.e. sessile or planktonic cultures).
# [2] = test system: Streptococcus faecalis (R 2); assay: MIC in broth, Gram+ strains; format: cell-based; conditions: Enterococcus faecalis; S. faecalis (R 2), Mueller-Hinton broth, 37° C., 18 hours; read-out: Minimal Inhibitory Concentration (MIC)
# Method in brief: (§1)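 MIC read after 18 hours at 37° C following standard microdilution of compounds in Mueller-Hinton broth. Bacteria grown overnight, matched to 0.5 McFarland turbidity and brought to a final 5.0×10^4 colony-forming units/ml. Mean MIC taken over susceptible strains, alongside count of resistant strains.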
# [3] = test system: Streptococcus faecalis (518); assay: MIC in broth, Gram+ strains; format: cell-based; conditions: Enterococcus faecalis; S. faecalis (518), Mueller-Hinton broth, 37° C., 18 hours; read-out: Minimal Inhibitory Concentration (MIC)
# Method in brief: as §1
# [4] = test system: Streptococcus faecalis (509); assay: MIC in broth, Gram+ strains; format: cell-based; conditions: Enterococcus faecalis; S. faecalis (509), Mueller-Hinton broth, 37° C., 18 hours; read-out: Minimal Inhibitory Concentration (MIC)
# Method in brief: as §1
# [5] = test system: Streptococcus faecalis (519); assay: MIC in broth, Gram+ strains; format: cell-based; conditions: Enterococcus faecalis; S. faecalis (519), Mueller-Hinton broth, 37° C., 18 hours; read-out: Minimal Inhibitory Concentration (MIC)
# Method in brief: as §1
# [6] = test system: Bacillus pumilus (CN 607); assay: MIC in broth, Gram+ strains; format: cell-based; conditions: B. pumilus (CN 607), Mueller-Hinton broth, 37° C., 18 hours, read-out: Minimal Inhibitory Concentration (MIC)
# Method in brief: as §1
# [7] = test system: Streptococcus faecalis (UM); assay: MIC in broth, Gram+ strains; format: cell-based; conditions: Enterococcus faecalis; S. faecalis (UM), Mueller-Hinton broth, 37° C., 18 hours; read-out: Minimal Inhibitory Concentration (MIC)
# Method in brief: as §1
# [8] = test system: Staphylococcus aureus (ATCC 14154); assay: MIC in broth, Gram+ strains; format: cell-based; conditions: ATCC14154, S. aureus (ATCC 14154), Mueller-Hinton broth, 37° C., 18 hours, read-out: Minimal Inhibitory Concentration (MIC)
# Method in brief: as §1
# [9] = test system: Bacillus subtilis (ATCC 6051); assay: MIC in broth, Gram+ strains; format: cell-based; conditions: ATCC6051, B. subtilis (ATCC 6051), Mueller-Hinton broth, 37° C., 18 hours, read-out: Minimal Inhibitory Concentration (MIC)
# Method in brief: as §1
# [10] = test system: Streptococcus faecalis (505); assay: MIC in broth, Gram+ strains; format: cell-based; conditions: Enterococcus faecalis; S. faecalis (505), Mueller-Hinton broth, 37° C., 18 hours; read-out: Minimal Inhibitory Concentration (MIC)
# Method in brief: as §1
# [11] = test system: Streptococcus faecalis (516); assay: MIC in broth, Gram+ strains; format: cell-based; conditions: Enterococcus faecalis; S. faecalis (516), Mueller-Hinton broth, 37° C., 18 hours; read-out: Minimal Inhibitory Concentration (MIC)
# Method in brief: as §1
smiles,measurement,setting,value
"CCCCCCCCCCCOC(=O)CC(C[N+](C)(C)C)OC(=O)CC(C)C [ST 722, Isovaleryl-L-Carnitine Undecyl Ester Chloride]",Sessile cells (CFU per flask),"[1]; 3-h contact, 0.1 mcg/ml",9.50 × 10^2 CFU per flask
same,Sessile cells (CFU per flask),"[1]; 3-h contact, 1.56 mcg/ml",9.50 × 10^2 CFU per flask
same,Sessile cells (CFU per flask),"[1]; 3-h contact, 4.0 mcg/ml",4.50 × 10^2 CFU per flask
same,Sessile cells (CFU per flask),"[1]; 24-h contact, 0.1 mcg/ml",4.35 × 10^5 CFU per flask
same,Sessile cells (CFU per flask),"[1]; 24-h contact, 1.56 mcg/ml",1.80 × 10^5 CFU per flask
same,Sessile cells (CFU per flask),"[1]; 24-h contact, 4.0 mcg/ml",1.75 × 10^5 CFU per flask
same,killing at 4 µg/mL,"[1]; Helicobacter pylori, NCTC11637, HEp-2, 3-h contact, 4 mcg/ml, read-out: reduction of number of sessile bacterial cells",~50%
same,MIC,[2],3.12 µg/mL
same,MIC,[3],3.12 µg/mL
same,MIC,[4],3.12 µg/mL
same,MIC,[5],3.12 µg/mL
same,MIC,[6],1.56 µg/mL
same,MIC,[7],1.56 µg/mL
same,MIC,[8],3.12 µg/mL
same,MIC,[9],3.12 µg/mL
same,MIC,[10],3.12 µg/mL
same,MIC,[11],1.56 µg/mL

# — US5498632A, “Esters of acyl carnitines with long-chain aliphatic alcohols and pharmaceutical compositions containing same having antibacterial activity” (Sigma-Tau Industrie Farmaceutiche Riunite S.p.A., priority 1992, dated 1996)
